Like-named read-outs stand apart in the source and are kept apart here. Blank lines part the entries; values can stand above or below the compound they belong to.
Legend:
[1] = tested on: marginal vein of each ear; conditions: for edema at injection site / erythema at injection site: 24 hour observation
[2] = cited from earlier work
[3] = cited from earlier work; for incidence of injection site pain: diclofenac 75 mg or ketorolac 30 mg IM (Morrow)
[4] = vs. 0% placebo; P=0.03; cited from earlier work
[5] = CABG study, cited from earlier work
[6] = tested on: marginal vein of each ear; assay: Histopathological evaluation of injection sites (Example 11); format: in vivo, New Zealand White rabbits
Procedure: Injection sites underwent histopathological evaluation.
Thrombosis was recorded for amorphous aggregates of fibrin like material within vascular lumens and variably adherent to vessel walls.

[7] = stored for 12 weeks at 5° C., 25° C./60% RH, 30° C./60% RH, 40° C./75% RH; for original NSAID content on storage: stability indicating HPLC; for visible signs of crystallization, deviation in pH and osmolarity on storage: vials or ampoules sealed under nitrogen
[8] = Treatment A, 5 mg/0.1 mL IV over one minute
[9] = Treatment B, 15 mg/0.3 mL IV over one minute
[10] = 1 mg/kg over 10 min as solution of 25 mg/mL (Campbell and Watters)
[11] = IV using a diluted infusion (Campbell and Watters)

edema at injection site [1, 8]: slight
erythema at injection site [1, 8]: well defined
edema at injection site [1, 9]: very slight
erythema at injection site [1, 9]: very slight to moderate to severe
SMILES: CC(C(=O)O)c1cccc(C(=O)c2ccccc2)c1 (racemic) [Ketoprofen, (±)-2-(3-benzoylphenyl)propionic acid]
irritation in the ear veins ([1]; Treatment A, 5 mg/0.1 mL IV): produced irritation
irritation in the ear veins ([1]; Treatment B, 15 mg/0.3 mL IV): produced irritation

SMILES: O=C(O)Cc1ccccc1Nc1c(Cl)cccc1Cl [diclofenac, 2-(2,6-dichlorophenylamino)benzeneacetic acid]
patients who developed phlebitis ([2]; 1 mg/kg in 100 mL saline every 12 hours x 2 doses, maxillofacial surgery (Tarkkila)): 10%
incidence of phlebitis, arm [2, 10]: 58%
incidence of phlebitis, hand [2, 10]: 85%
incidence of thrombosis, arm veins [2, 11]: 8%
incidence of thrombosis, hand veins [2, 11]: 38%
patients who developed phlebitis ([2]; after hip replacement surgery, diclofenac 75 mg IV over 30 minutes then 75 mg/15.5 hours, ketoprofen 100 mg over 30 min then 100 mg/15.5 hours (Kostamovaara)): 14%
patients who experienced phlebitis ([2]; after major orthopedic surgery, 0.35 mg/kg IV then 0.90 mcg/min continuous infusion, 6 hours after start (Claeys)): 5%
time of (delayed) venous thrombosis ([2]; diluted in 100 to 200 mL, infused over 15 to 20 minutes (Gopinath)): > 72 h
cases of severe local reactions ([3]; IM (Pillans and O'Connor)): six
patients who died ([3]; IM (Pillans and O'Connor)): Two of the six
patients with extensive tissue necrosis at the IM injection site ([3]; IM (Pillans and O'Connor)): Three
patients with necrotizing fasciitis ([3]; IM (Pillans and O'Connor)): three
share of all accepted claims for injection related complications ([3]; IM administration, New Zealand 1992 to 2003): 22.6%
incidence of injection site pain [3]: 31%

SMILES: O=C(c1ccccc1)c1ccc2n1CCC2C(=O)O (stereo not drawn) [ketorolac]
incidence of injection site pain [3]: 3%

SMILES: CCC(=O)NS(=O)(=O)c1ccc(-c2c(-c3ccccc3)noc2C)cc1 [parecoxib]
sternal wound infections [4]: 3.2%
deaths ([5]; vs. 0 placebo): 4
cerebrovascular events ([5]; vs. 0.7% placebo): 2.6%
incidence of myocardial infarctions ([5]; vs. 0.7% placebo): 1.9%

mean intensity (severity) of edema and infiltrates ([6]; rabbit, in vivo): none to negligible
original NSAID content on storage [7]: 100%±5%
SMILES: CN1C(C(=O)Nc2ccccn2)=C(O)c2ccccc2S1(=O)=O.NCCN [piroxicam-ethylenediamine]
incidence of inflammatory cell infiltrates ([6]; rabbit, in vivo): low
visible signs of crystallization, deviation in pH and osmolarity on storage [7]: no visible signs of crystallization or significant deviation in pH and osmolarity

original NSAID content on storage [7]: 100%±5%
SMILES: CN1C(C(=O)Nc2ccccn2)=C(O)c2sccc2S1(=O)=O.CN1C(C(=O)Nc2ccccn2)=C(O)c2sccc2S1(=O)=O.NCCN [tenoxicam ethylenediamine]
visible signs of crystallization, deviation in pH and osmolarity on storage [7]: no visible signs of crystallization or significant deviation in pH and osmolarity

mean intensity (severity) of edema and infiltrates ([6]; injection site histopathology): intermediate
SMILES: CN1C(C(=O)Nc2ccccn2)=C(O)c2ccccc2S1(=O)=O [unsalified piroxicam, 4-hydroxy-2-methyl-N-2-pyridinyl-2H-1,2-benzothiazine-3-carboxamide-1,1-dioxide]
incidence of inflammatory cell infiltrates ([6]; at the end of needle progression and 1 cm away from the end of progression): intermediate

— US20110098284A1, “Methods and compositions for treating pain” (priority 2005, published 2011)
